Data as given in patent US20260250316A1, “CRYSTALLINE FORMS OF A MACROCYCLIC PEPTIDE ANTIBIOTIC” (Hoffmann-La Roche Inc., priority 2022, published 2026).

Assays:
physchem = conditions: water, approximately 1 g equilibrated in 8.5 mL of water at 20° C. for 2 days, centrifuged, uPLC
Method: Approximately 1 g of substance was equilibrated in 8.5 mL of water at 20° C. for 2 days. 1 mL of suspension was centrifuged. The filtrate was analyzed by uPLC.

Which Solubility (approximately 1 g equilibrated in 8.5 mL of water at 20° C. for 2 days, centrifuged, uPLC) does the source give for CN1C(=O)[C@H](CCCCN)NC(=O)[C@H](CCCN)NCc2cccnc2Sc2cccc(-c3ccc(C(=O)O)cc3)c2CNC(=O)[C@@H]1Cc1c[nH]c2ccccc12.Cl [Amorphous HCl salt, 4-[(11S,14S,17S)-14-(4-Aminobutyl)-11-(3-aminopropyl)-17-(1H-indol-3-ylmethyl)-16-methyl-12,15,18-trioxo-2-thia-4,10,13,16,19-pentazatricyclo[19.4.0.03,8]pentacosa-1(25),3(8),4,6,21,23-hexaen-22-yl]benzoic acid, mono hydrochloric acid salt] here?
The Solubility was 177.6 mg/mL.

With CN1C(=O)[C@H](CCCCN)NC(=O)[C@H](CCCN)NCc2cccnc2Sc2cccc(-c3ccc(C(=O)O)cc3)c2CNC(=O)[C@@H]1Cc1c[nH]c2ccccc12.Cl [Form A family HCl salt] as the compound, how does the solubility at 2 days (physchem) read?
Its solubility at 2 days is 124 mg/mL.

With CN1C(=O)[C@H](CCCCN)NC(=O)[C@H](CCCN)NCc2cccnc2Sc2cccc(-c3ccc(C(=O)O)cc3)c2CNC(=O)[C@@H]1Cc1c[nH]c2ccccc12 [Form A family free zwitterion] as the compound, how does the solubility at 2 days (physchem) read?
Its solubility at 2 days is < 1 mg/mL.

Which “Solubility compared to the free base (in words)” value (especially in aqueous media) does the source give for CN1C(=O)[C@H](CCCCN)NC(=O)[C@H](CCCN)NCc2cccnc2Sc2cccc(-c3ccc(C(=O)O)cc3)c2CNC(=O)[C@@H]1Cc1c[nH]c2ccccc12.Cl [HCl salt, 4-[(11S,14S,17S)-14-(4-Aminobutyl)-11-(3-aminopropyl)-17-(1H-indol-3-ylmethyl)-16-methyl-12,15,18-trioxo-2-thia-4,10,13,16,19-pentazatricyclo[19.4.0.03,8]pentacosa-1(25),3(8),4,6,21,23-hexaen-22-yl]benzoic acid] here?
Its value is “dramatically increased solubility compared to the free base”.

Which “Solubility in water (in words)” value (water) does the source give for CN1C(=O)[C@H](CCCCN)NC(=O)[C@H](CCCN)NCc2cccnc2Sc2cccc(-c3ccc(C(=O)O)cc3)c2CNC(=O)[C@@H]1Cc1c[nH]c2ccccc12 [free base, 4-[(11S,14S,17S)-14-(4-Aminobutyl)-11-(3-aminopropyl)-17-(1H-indol-3-ylmethyl)-16-methyl-12,15,18-trioxo-2-thia-4,10,13,16,19-pentazatricyclo[19.4.0.03,8]pentacosa-1(25),3(8),4,6,21,23-hexaen-22-yl]benzoic acid] here?
Its value is “hardly soluble in water”.
